In ChEMBL document CHEMBL1201862, “PubChem BioAssay data set” (2004):
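Assay format: 96-well plates, 48-hour exposure. GI50: concentration for 50% inhibition of growth.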 Active and inactive are the calls of the source. No stated cut-off is given here; in the data, active = GI50 up to about 1.1 µM and inactive = higher.

Legend:
Experiment in all cases: DTP human tumour cell line panel, 48 h
HT-29 = system: HT-29
786-0 = system: 786-0
XF498 = system: XF498
HCC 2998 = system: HCC 2998
HCT-15 = system: HCT-15
SNB-78 = system: SNB-78
M14 = system: M14
SNB-75 = system: SNB-75
NCI-H460 = system: NCI-H460
EKVX = system: EKVX
KM-20L2 = system: KM-20L2
LXFL 529 = system: LXFL 529
HOP-62 = system: HOP-62
OVCAR-4 = system: OVCAR-4
DMS-273 = system: DMS-273
OVCAR-8 = system: OVCAR-8
M19-MEL = system: M19-MEL
OVCAR-3 = system: OVCAR-3
K562 = system: K562
SK-MEL-2 = system: SK-MEL-2
SK-OV-3 = system: SK-OV-3
DMS-114 = system: DMS-114
OVCAR-5 = system: OVCAR-5
MOLT-4 = system: MOLT-4
RPMI-8226 = system: RPMI-8226
SK-MEL-5 = system: SK-MEL-5
LOX IMVI = system: LOX IMVI
NCI-H23 = system: NCI-H23
SW-620 = system: SW-620
COLO 205 = system: COLO 205
UACC-62 = system: UACC-62
U-251 = system: U-251
SF-539 = system: SF-539
Malme-3M = system: Malme-3M
A549 = system: A549
A498 = system: A498
DLD-1 = system: DLD-1
ACHN = system: ACHN
SF-295 = system: SF-295
RXF 631 = system: RXF 631
KM12 = system: KM12
UO-31 = system: UO-31
UACC-257 = system: UACC-257
SF-268 = system: SF-268
SNB-19 = system: SNB-19
TK-10 = system: TK-10
SK-MEL-28 = system: SK-MEL-28
CCRF-CEM = system: CCRF-CEM
SN12C = system: SN12C
IGROV-1 = system: IGROV-1
CAKI-1 = system: CAKI-1
HL-60 = system: HL-60
NCI-H226 = system: NCI-H226
SR = system: SR
NCI-H522 = system: NCI-H522
HCT-116 = system: HCT-116

For Cc1ccc(NC(=O)CC2SC(Nc3cccc(Cl)c3C)=NC2=O)cc1 (stereo not given), the GI50 (HT-29) was > 100 µM (inactive), the GI50 (786-0) was > 100 µM (inactive) and the GI50 (XF498) was 46.2 µM (inactive). For the same compound, the GI50 (HCC 2998) was 99.8 µM (inactive), the GI50 (HCT-15) was 76.9 µM and the GI50 (SNB-78) was 60.7 µM (inactive). For the same compound, the GI50 (M14) was 38.8 µM (inactive), the GI50 (SNB-75) was > 100 µM (inactive) and the GI50 (NCI-H460) was 96.6 µM (inactive). The GI50 (EKVX) was 70 µM (inactive), the GI50 (KM-20L2) was 70.8 µM (inactive) and the GI50 (LXFL 529) was 32.4 µM (inactive). For the same compound, the GI50 (HOP-62) was > 100 µM (inactive), the GI50 (OVCAR-4) was 28.7 µM (inactive) and the GI50 (DMS-273) was > 100 µM (inactive). For the same compound, the GI50 (OVCAR-8) was 40.6 µM (inactive), the GI50 (M19-MEL) was 71 µM (inactive) and the GI50 (OVCAR-3) was 23 µM (inactive). The GI50 (K562) was 34.6 µM (inactive), the GI50 (SK-MEL-2) was 44.6 µM (inactive) and the GI50 (SK-OV-3) was > 100 µM (inactive). The GI50 (DMS-114) was 29.9 µM (inactive), the GI50 (OVCAR-5) was > 100 µM (inactive) and the GI50 (MOLT-4) was 33 µM (inactive). The GI50 (RPMI-8226) was 28.2 µM (inactive), the GI50 (SK-MEL-5) was 29.6 µM (inactive) and the GI50 (LOX IMVI) was > 100 µM (inactive). The GI50 (NCI-H23) was 28.6 µM (inactive), the GI50 (SW-620) was 68.5 µM (inactive) and the GI50 (COLO 205) was 64.7 µM (inactive). The GI50 (UACC-62) was 42 µM (inactive), the GI50 (U-251) was 50.4 µM (inactive) and the GI50 (SF-539) was 53.1 µM (inactive). The GI50 (Malme-3M) was 52.4 µM (inactive), the GI50 (A549) was 51.1 µM (inactive) and the GI50 (A498) was 33 µM (inactive). For the same compound, the GI50 (DLD-1) was 48.8 µM (inactive), the GI50 (ACHN) was 41 µM (inactive) and the GI50 (SF-295) was 39.6 µM (inactive). For the same compound, the GI50 (RXF 631) was > 100 µM (inactive), the GI50 (KM12) was 40.9 µM (inactive) and the GI50 (UO-31) was 22.6 µM (inactive). For the same compound, the GI50 (UACC-257) was 48 µM (inactive), the GI50 (SF-268) was 37 µM (inactive) and the GI50 (SNB-19) was 40.4 µM (inactive). The GI50 (TK-10) was 92 µM (inactive), the GI50 (SK-MEL-28) was 40.9 µM (inactive) and the GI50 (CCRF-CEM) was 32.1 µM (inactive). The GI50 (SN12C) was 50.9 µM (inactive), the GI50 (IGROV-1) was 94.8 µM (inactive) and the GI50 (CAKI-1) was 71.4 µM (inactive).

For c1ccc2c(c1)CCc1c(-c3ccncc3)n[nH]c1-2, the GI50 (HL-60) was 34.3 µM (inactive), the GI50 (HT-29) was 44.6 µM (inactive) and the GI50 (786-0) was 37.8 µM (inactive). For the same compound, the GI50 (XF498) was 0.583 µM (active), the GI50 (HCC 2998) was 33.1 µM (inactive) and the GI50 (HCT-15) was 32.1 µM. The GI50 (SNB-78) was 29.6 µM (inactive), the GI50 (M14) was 22.8 µM (inactive) and the GI50 (SNB-75) was 26.3 µM (inactive). For the same compound, the GI50 (NCI-H460) was 32.1 µM (inactive), the GI50 (EKVX) was 6.14 µM (inactive) and the GI50 (KM-20L2) was 23.6 µM (inactive). The GI50 (LXFL 529) was 23.7 µM (inactive), the GI50 (HOP-62) was 28.4 µM (inactive) and the GI50 (NCI-H226) was 23 µM (inactive). For the same compound, the GI50 (DMS-273) was 22.9 µM (inactive), the GI50 (OVCAR-8) was 29.4 µM (inactive) and the GI50 (M19-MEL) was 21.4 µM (inactive). For the same compound, the GI50 (OVCAR-3) was 16.7 µM (inactive), the GI50 (K562) was 48.2 µM (inactive) and the GI50 (SK-MEL-2) was 17.9 µM (inactive). The GI50 (SK-OV-3) was 33.4 µM (inactive), the GI50 (DMS-114) was 17.2 µM (inactive) and the GI50 (OVCAR-5) was 32.7 µM (inactive). For the same compound, the GI50 (MOLT-4) was 36 µM (inactive), the GI50 (RPMI-8226) was 26.5 µM (inactive) and the GI50 (SK-MEL-5) was 18 µM (inactive). The GI50 (SR) was 27.8 µM (inactive), the GI50 (LOX IMVI) was 23.3 µM (inactive) and the GI50 (NCI-H23) was 19.4 µM (inactive). The GI50 (SW-620) was 39.7 µM (inactive), the GI50 (COLO 205) was 25.7 µM (inactive) and the GI50 (UACC-62) was 16.4 µM (inactive). The GI50 (U-251) was 13.6 µM (inactive), the GI50 (SF-539) was 24.8 µM (inactive) and the GI50 (Malme-3M) was 33.5 µM (inactive). The GI50 (A549) was 30.8 µM (inactive), the GI50 (NCI-H522) was > 10 µM (inactive) and the GI50 (A498) was 25.9 µM (inactive). For the same compound, the GI50 (DLD-1) was 41.9 µM (inactive), the GI50 (ACHN) was 26.5 µM (inactive) and the GI50 (HCT-116) was 22.2 µM (inactive). For the same compound, the GI50 (SF-295) was 45.7 µM (inactive), the GI50 (RXF 631) was > 10 µM (inactive) and the GI50 (KM12) was 21.8 µM (inactive). The GI50 (UACC-257) was 25.6 µM (inactive), the GI50 (SF-268) was 28.8 µM (inactive) and the GI50 (SNB-19) was 27.7 µM (inactive). The GI50 (TK-10) was 29.8 µM (inactive), the GI50 (SK-MEL-28) was 23.8 µM (inactive) and the GI50 (CCRF-CEM) was 14.2 µM (inactive). For the same compound, the GI50 (SN12C) was 43.5 µM (inactive), the GI50 (IGROV-1) was 26.4 µM (inactive) and the GI50 (CAKI-1) was 19.8 µM (inactive).
